Data taken from BindingDB's records for doi:10.1016/j.bmcl.2006.05.062 (AstraZeneca, 2006).
pIC50: −log10 of the molar value.

Assay: Inhibition of COX1-mediated platelet aggregation

In the case of COc1ccc2c(c1)c(CC(=O)O)c(C)n2-c1ccnc2cc(Cl)ccc12 [2-(1-(7-chloroquinolin-4-yl)-5-methoxy-2-methyl-1H-indol-3-yl)acetic acid], the pIC50 was 7.40.
